Legend:
[1] = test system: adult subjects with major depressive disorder (MDD); assay: Phase 2 clinical trial in MDD: QIDS-SR Item #10 Concentration/Decision Making; type: in vivo, human; set-up: key to QIDS-SR Item #10 score, Median / QIDS-SR Item #10 score, Min / QIDS-SR Item #10 score, Max: QIDS-SR Item 10 scored 0 (no change) to 3 (cannot concentrate/decide); conditions: 20 mg/day; for QIDS-SR Item #10 Change from Baseline, Max / QIDS-SR Item #10 Change from Baseline, Mean (SD) / QIDS-SR Item #10 Change from Baseline, Median / QIDS-SR Item #10 Change from Baseline, Min / QIDS-SR Item #10 score, Max / QIDS-SR Item #10 score, Mean (SD) / QIDS-SR Item #10 score, Median / QIDS-SR Item #10 score, Min: mITT, Females
Experimental: (§1) A Phase 2, multicenter, double-blind, randomized, placebo-controlled study of the safety and efficacy of SP-624 in the treatment of adult subjects with major depressive disorder (MDD) as defined by the Diagnostic and Statistical Manual of Mental Disorders, Fifth Edition (DSM-5) was carried out. Following the successful completion of a Screening Phase, subjects were randomized to one of two treatment groups in a 1:1 ratio and received Compound 1 (SP-624) or placebo over a treatment period of four weeks (Treatment Group #1: SP-624 20 mg/day; Treatment Group #2: Placebo).
(§2) Prior to initiating the 4-week treatment period, subjects completed a Screening/Baseline period of up to 28 days, during which time all screening assessments were performed, and any current depression medications discontinued. All screening assessments were completed before discontinuing any current depression medications. Subjects returned for a Baseline Visit to complete efficacy and safety assessments. During the treatment period, subjects returned to the investigative site to complete efficacy and safety assessments at the end of Weeks 1, 2, 3, and 4. After the final dose of study drug, subjects completed a follow-up period of two weeks and returned at the end of Weeks 5 and 6. Subjects may be treated with anti-depressant medications according to physician recommendations after completion of the Week 5 Visit.
(§3) Each dose of Compound 1 was supplied as two capsules, each containing 10 mg of active pharmaceutical ingredient (API). Matching placebo capsules identical in shape and color to the active capsules were used.
The study included several measurements related to cognitive function. The first is the QIDS-SR) Item #10 Concentration/Decision Making. The answer scale is: 0—There is no change in my usual capacity to concentrate or make decisions; 1—I occasionally feel indecisive or find that my attention wanders; 2—Most of the time, I struggle to focus my attention or to make decisions; 3—I cannot concentrate well enough to read or cannot make even minor decisions.

[2] = test system: Sprague Dawley rat hippocampal slices; assay: Ex vivo electrophysiology: short-lasting long-term potentiation (S-LTP) at hippocampal CA1 synapses; type: cell-based; conditions: 10 nM; single 1-sec train of 100-Hz stimulation
From the text: Time-point 0 represents delivery of HFS. Slopes of fEPSP are normalized to baseline and plotted against time.
The effect of compound 1 to enhance mEPSPs may be dependent on the influx of extracellular calcium.

[3] = test system: adult subjects with major depressive disorder (MDD); assay: Phase 2 clinical trial in MDD: MADRS Item #6 Concentration Difficulties; type: in vivo, human; set-up: key to MADRS Item #6 Concentration Difficulty score, Median / MADRS Item #6 Concentration Difficulty score, Min / MADRS Item #6 Concentration Difficulty score, Max: 0 = no concentration difficulty, 6 = unable to read/converse; key to MADRS Item #6 Change from Baseline, Median / MADRS Item #6 Change from Baseline, Max: change from baseline on 0–6 MADRS item scale; conditions: for MADRS Item #6 Change from Baseline, Max / MADRS Item #6 Change from Baseline, Mean (SD) / MADRS Item #6 Change from Baseline, Median / MADRS Item #6 Change from Baseline, Min / MADRS Item #6 Concentration Difficulty score, Max / MADRS Item #6 Concentration Difficulty score, Mean (SD) / MADRS Item #6 Concentration Difficulty score, Median / MADRS Item #6 Concentration Difficulty score, Min / MADRS Item #6 Change from Baseline, LSM Difference (95% CI) SP-624 vs Placebo: mITT, Females; for MADRS Item #6 Change from Baseline, LSM Difference (95% CI) SP-624 vs Placebo: MMRM
Experimental: as §1, §2, §3
The third cognitive function measurement is MADRS Item #6 Concentration Difficulties (representing difficulties in collecting one's thoughts mounting to incapacitating lack of concentration, rated according to intensity, frequency, and degree of incapacity produced). The answer scale is: 0—No difficulties in concentration; 1—blank; 2—Occasional difficulties in collecting one's thoughts; 3—blank; 4—Difficulties in concentrating and sustaining thought which reduces ability to read or hold a conversation; 5—blank; 6—Unable to read or converse without great difficulty.

[4] = test system: Wistar rats; assay: Novel object recognition test, subchronic PCP-induced cognitive impairment; type: in vivo, rat
Experimental: The total exploration time of two identical objects in the acquisition trial was measured manually and indicated as the mean±SEM (n=10). No statistical difference was found in the total exploration time among the different groups by one-way ANOVA (P=0.340).
NDI was calculated using the following equation: novel object interaction time/total interaction time×100(%). Data are represented as the mean±SEM (n=10). Significant difference from control group was indicated by ***P<0.001 (Student's t-test). Significant differences from PCP-treated group were indicated by ##P<0.01, #P<0.05 (Dunnett test). Significant difference from PCP-treated group were indicated by ††P<0.01 (Student's t-test).
Exploration time of each object in retention trial was measured manually and presented as the mean±SEM (n=10). Significant differences from familiar object interaction were indicated by ***P<0.001, **P<0.01 (paired t-test).
A novel object recognition test was conducted to investigate the effect of SP-624 on subchronic PCP-induced cognitive impairment in Wistar rats. Clozapine was used as a positive control.

[5] = Week 5 (1-week after the last dose), 20 mg/day for four weeks

## COC1=CC(=O)C[C@@H](C)[C@]12Oc1c(Cl)c(-c3nnc(C)o3)cc(OC)c1C2=O [Compound 1, (2S,6′R)-7-Chloro-2′,4-dimethoxy-6′-methyl-6-(5-methyl-1,3,4-oxadiazol-2-yl)-3H-spiro[1-benzofuran-2,1′-cyclohex[2]ene]-3,4′-dione]
[1]; Week 2
  QIDS-SR Item #10 Change from Baseline, Max: 1
  QIDS-SR Item #10 Change from Baseline, Mean (SD): −0.3 (0.71)
  QIDS-SR Item #10 Change from Baseline, Median: 0.0
  QIDS-SR Item #10 Change from Baseline, Min: −3
  QIDS-SR Item #10 score, Max: 3
  QIDS-SR Item #10 score, Mean (SD): 1.5 (0.82)
  QIDS-SR Item #10 score, Median: 2.0
  QIDS-SR Item #10 score, Min: 0
[1]; Week 4
  QIDS-SR Item #10 Change from Baseline, Max: 1
  QIDS-SR Item #10 Change from Baseline, Mean (SD): −0.6 (0.80)
  QIDS-SR Item #10 Change from Baseline, Median: 0.0
  QIDS-SR Item #10 Change from Baseline, Min: −3
  QIDS-SR Item #10 score, Max: 3
  QIDS-SR Item #10 score, Mean (SD): 1.2 (0.86)
  QIDS-SR Item #10 score, Median: 1.0
  QIDS-SR Item #10 score, Min: 0
[1]; by week 4 of treatment
  QIDS-SR Item #10 Concentration/Decision Making, improvement in score vs placebo: greater improvement in score
[2]
  short-lasting long-term potentiation (S-LTP): tended to increase
[3]; Week 1, 20 mg/day
  MADRS Item #6 Change from Baseline, Max: 1
  MADRS Item #6 Change from Baseline, Mean (SD): −0.7 (1.27)
  MADRS Item #6 Change from Baseline, Median: 0
  MADRS Item #6 Change from Baseline, Min: −5
  MADRS Item #6 Concentration Difficulty score, Max: 6
  MADRS Item #6 Concentration Difficulty score, Mean (SD): 3.0 (1.48)
  MADRS Item #6 Concentration Difficulty score, Median: 4
  MADRS Item #6 Concentration Difficulty score, Min: 0
[3]; Week 1, 20 mg/day, P-value 0.339
  MADRS Item #6 Change from Baseline, LSM Difference (95% CI) SP-624 vs Placebo: −0.2 (−0.5, 0.2)
[3]; Week 2, 20 mg/day
  MADRS Item #6 Change from Baseline, Max: 3
  MADRS Item #6 Change from Baseline, Mean (SD): −0.7 (1.27)
  MADRS Item #6 Change from Baseline, Median: 0
  MADRS Item #6 Change from Baseline, Min: −4
  MADRS Item #6 Concentration Difficulty score, Max: 5
  MADRS Item #6 Concentration Difficulty score, Mean (SD): 3.0 (1.37)
  MADRS Item #6 Concentration Difficulty score, Median: 3
  MADRS Item #6 Concentration Difficulty score, Min: 0
[3]; Week 2, 20 mg/day, P-value 0.753
  MADRS Item #6 Change from Baseline, LSM Difference (95% CI) SP-624 vs Placebo: 0.1 (−0.3, 0.4)
[3]; Week 3, 20 mg/day
  MADRS Item #6 Change from Baseline, Max: 0
  MADRS Item #6 Change from Baseline, Mean (SD): −1.2 (1.40)
  MADRS Item #6 Change from Baseline, Median: −1
  MADRS Item #6 Change from Baseline, Min: −5
  MADRS Item #6 Concentration Difficulty score, Max: 4
  MADRS Item #6 Concentration Difficulty score, Mean (SD): 2.6 (1.58)
  MADRS Item #6 Concentration Difficulty score, Median: 3
  MADRS Item #6 Concentration Difficulty score, Min: 0
[3]; Week 3, 20 mg/day, P-value 0.214
  MADRS Item #6 Change from Baseline, LSM Difference (95% CI) SP-624 vs Placebo: −0.3 (−0.7, 0.2)
[3]; Week 4, 20 mg/day
  MADRS Item #6 Change from Baseline, Max: 1
  MADRS Item #6 Change from Baseline, Mean (SD): −1.2 (1.51)
  MADRS Item #6 Change from Baseline, Median: −1
  MADRS Item #6 Change from Baseline, Min: −4
  MADRS Item #6 Concentration Difficulty score, Max: 5
  MADRS Item #6 Concentration Difficulty score, Mean (SD): 2.5 (1.67)
  MADRS Item #6 Concentration Difficulty score, Median: 3
  MADRS Item #6 Concentration Difficulty score, Min: 0
[3]; Week 4, 20 mg/day, P-value 0.144
  MADRS Item #6 Change from Baseline, LSM Difference (95% CI) SP-624 vs Placebo: −0.3 (−0.8, 0.1)
[3]; [5]
  MADRS Item #6 Change from Baseline, Max: 1
  MADRS Item #6 Change from Baseline, Mean (SD): −1.3 (1.51)
  MADRS Item #6 Change from Baseline, Median: −1
  MADRS Item #6 Change from Baseline, Min: −5
  MADRS Item #6 Concentration Difficulty score, Max: 5
  MADRS Item #6 Concentration Difficulty score, Mean (SD): 2.4 (1.63)
  MADRS Item #6 Concentration Difficulty score, Median: 3
  MADRS Item #6 Concentration Difficulty score, Min: 0
[3]; Week 5 (1-week after the last dose), 20 mg/day for four weeks, P-value 0.007
  MADRS Item #6 Change from Baseline, LSM Difference (95% CI) SP-624 vs Placebo: −0.6 (−1.1, −0.2)
[3]; all measurement times through week 5, 20 mg/day
  MADRS Item #6 Concentration Difficulties, improvement in score vs placebo: greater improvement in score
[4]; 0.01 mg/kg
  sub-chronic PCP-induced cognitive deficits in the NDI: not
[4]; 0.1 and 1 mg/kg
  sub-chronic PCP-induced cognitive deficits in the NDI: significantly attenuated

From patent publication US20260034103A1, “COMPOSITIONS AND METHODS FOR IMPROVING MEMORY AND COGNITION” (priority 2022, published 2026)
